From patent US12564595B2, “Prophylactic and therapeutic pharmaceutical agent for HIV infectious diseases characterized by comprising combination of integrase inhibitor and anti-HIV agent” (Shionogi & Co., Ltd., priority 2019, dated 2026)

Columns and labels:
[1] = test system: HIV; assay: microbe, parasite or virus in culture; assay type: cell-based; conditions: Human immunodeficiency virus 1, MT4, 96 h, read-out: EC50 (50% HIV inhibition concentration), MT-4 cells, HIV, cultured four days, MTT; compounds of formula (I) of (A)
Method: A serial dilution series of test samples was prepared in 96-well microplates (50 μL/well).
100 μL/well in each case were dispensed onto plates having test samples of 2.5×10^5/mL MT-4 cell suspension, and HIV virus solution was then dispensed thereto in the amount of 50 μL/well. Mixing was performed using a plate mixer and culturing was performed for four days in a CO2 incubator. MTT (3-(4,5-dimethylthiazol-2-yl)-2,5-diphenyltetrazolium bromide) liquid was dispensed into each well in the amount of 30 μL in each case. The reaction was conducted for 1 h in a CO2 incubator. 150 μL of supernatant were removed from each well, taking care not to aspirate any cells. 150 μL of cell solution were added, and thorough mixing was performed with a plate mixer until all the cells had been dissolved. The optical absorbance of the mixed plates was measured at two wavelengths: 560 nm/690 nm, with a microplate reader.

[2] = test system: HIV mutant strain 2 (E92Q/E138T/G140S/Q148H); assay: Test Example 2: resistance evaluation test (HeLa-CD4 reporter), mutant strain 2; assay type: cell-based; conditions: FC=EC50 of mutant strain/EC50 of wild strain; HeLa-CD4 cells
Method: (§1) A serial dilution series of test samples in 96-well microplates was prepared (50 […]).
(§2) 2.5×10^4/mL of HeLa-CD4 cell suspension was dispensed into each of the microplates containing test sample, in the amount of 100 μL/well, and HIV virus liquid (wild strain and mutant strain) was then dispensed in an amount of 50 μL/well. Mixing was performed using a plate mixer and culturing was performed for three days in a CO2 incubator. After removing the cultured supernatant of each well by suction, 100 μL of the cell solution buffer in the reporter measurement kit was dispensed thereto, and freezing was conducted in a refrigerator (−80° C.). The plates frozen in the refrigerator were defrosted at room temperature, then mixed using a plate mixer and centrifuged for 5 min at 1,200 rpm. The supernatant of each well was divided to 96-well microplates (BLACK) in the amount of 20 μL in each case. The chemiluminescence reagent in the reporter assay kit was dispensed in the amount of 100 μL in each case, and, after reacting for about 1 h at room temperature, the amount of luminescence was measured using a MicroBeta TRILUX.
(§3) The degree of resistance (fold change (FC)) of each mutant strain was also calculated using the following formula. FC=EC50 of mutant strain/EC50 of wild strain (Results)
(§4) The results of the example compounds relating to formula (I) of (A) are shown below. The […] in respect of mutant strain 1 (E138K/G140S/Q148H/N155H) and the FC in respect of mutant strain 2 (E92Q/E138T/G140S/Q148H) are shown in the Table.

[3] = Test Example 8: metabolic stability test; assay type: in vitro ADME, human; conditions: pooled human liver microsomes, 30 min at 37° C., NADPH, compound concentration 0.5 μmol/L
Method: The extent of metabolization of the compound according to the present invention in the liver was evaluated by reacting commercially available pooled human liver microsomes with the compound according to the present invention for a fixed time and calculating the remaining percentage by comparing the reaction sample with an unreacted sample.
The reaction (oxidative reaction) was conducted for 0 min or 30 min at 37° C. in the presence of 1 mmol/L of NADPH, in a 0.2 mL buffer solution containing 0.5 mg of human liver microsome protein/mL (50 mmol/L Tris-HCl pH 7.4, 150 mmol/L potassium chloride, 10 mmol/L magnesium chloride). After the reaction, 50 μL of reaction liquid were added to 100 μL of methanol/acetonitrile=1/1 (v/v) solution, mixed, and centrifuged for 15 minutes at 3000 rpm. The compound according to the present invention in the centrifuged supernatant was quantified using LC/MS/MS or solid phase extraction (SPE)/MS; the residual amount of the compound according to the present invention after the reaction was calculated, taking the amount of the compound at the 0 min reaction point as 100%.

[4] = test system: HIV mutant strain 1 (E138K/G140S/Q148H/N155H); assay: Test Example 2: resistance evaluation test (HeLa-CD4 reporter), mutant strain 1; assay type: cell-based; conditions: FC=EC50 of mutant strain/EC50 of wild strain; HeLa-CD4 cells
Method: as §1, §2, §3, §4

SMILES | EC50 [1] [nM] | FC in respect of mutant strain 2 (E92Q/E138T/G140S/Q148H) [2] | Remaining percentage [3] [%] | FC in respect of mutant strain 1 (E138K/G140S/Q148H/N155H) [4]
C[C@@H]1CCN2[C@@H](C1)N(C)C(=O)c1c(O)c(=O)c(-c3nnc(Cc4c(F)cc(F)cc4F)s3)cn12 [II-144] | 0.69 | 6.1 | 94.2 | 6.1
C[C@@H]1CCC[C@H]2N(C)C(=O)c3c(O)c(=O)c(-c4nnc(Cc5ccc(F)cc5F)s4)cn3N12 [II-124] | 3.5 | 11 | 103 | 6.8
CCN1C(=O)c2c(O)c(=O)c(C(=O)NCc3ccc(F)cc3F)cn2N2CC[C@@H](C)C[C@@H]12 [II-068] | 0.25 | 4.2 | 82.9 | 7
C[C@@H]1CC[C@H]2N(C)C(=O)c3c(O)c(=O)c(-c4nnc(Cc5ccc(F)cc5F)s4)cn3N12 [II-113] | 0.66 | 6.5 | 85.3 | 7.2
CCN1C(=O)c2c(O)c(=O)c(-c3nnc(Cc4cc(F)c(F)cc4F)s3)cn2N2C[C@@H]3CC[C@@H](C3)[C@@H]12 [II-148] | 5.2 | 6.6 | 71.7 | 8.3
CCN1C(=O)c2c(O)c(=O)c(-c3nnc(Cc4c(F)cc(F)cc4F)s3)cn2N2C[C@@H](C)C[C@@H]12 [II-112] | 1.9 | 7 | 90.5 | 4.7
CCN1C(=O)c2c(O)c(=O)c(-c3nnc(Cc4ccc(F)cc4F)s3)cn2N2C[C@@H]3CC[C@@H](O3)[C@@H]12 [II-127] | 0.74 | 19 | 100 | 7.9
CCN1C(=O)c2c(O)c(=O)c(-c3nnc(Cc4c(F)cc(F)cc4F)s3)cn2N2C[C@@H]3CC[C@@H](O3)[C@@H]12 [II-126] | 0.6 | 20 | 97.2 | 17
CCN1C(=O)c2c(O)c(=O)c(-c3nnc(Cc4c(F)cc(F)cc4F)s3)cn2N2C[C@@H](C)CC[C@@H]12 [II-156] | 1.2 | 4.6 | 91.3 | 3.5
CCN1C(=O)c2c(O)c(=O)c(-c3nnc(Cc4ccc(F)cc4)s3)cn2N2C[C@@H]3CC[C@@H](O3)[C@@H]12 [II-128] | 0.66 | 29 | 103 | 20
CN1C(=O)c2c(O)c(=O)c(-c3nnc(Cc4ccc(F)cc4F)s3)cn2N2C[C@@H]3CC[C@@H](C3)[C@@H]12 [II-138] | 0.14 | 11 | 93.9 | 15
CCN1C(=O)c2c(O)c(=O)c(-c3nnc(Cc4c(F)cc(F)cc4F)s3)cn2N2[C@H](C)CCC[C@@H]12 [II-125] | 1.4 | 26 | 88.5 | 11
COC[C@@H]1CC[C@H]2N(C)C(=O)c3c(O)c(=O)c(C(=O)NCc4c(F)cc(F)cc4F)cn3N12 [II-157] | 0.7 | 24 | 90 | 53
CN1C(=O)c2c(O)c(=O)c(-c3nnc(Cc4ccc(F)cc4F)s3)cn2N2CCOC[C@@H]12 [II-102] | 1.3 | 22 | 106 | 25
CCN1C(=O)c2c(O)c(=O)c(-c3nnc(Cc4ccc(F)cc4F)s3)cn2N2C[C@@H](C)CC[C@@H]12 [II-155] | 0.3 | 5.1 | 93 | 5.2
CCN1C(=O)c2c(O)c(=O)c(C(=O)NCc3c(F)cc(F)cc3F)cn2N2[C@H](COC)CC[C@@H]12 [II-093] | 0.22 | 25 | 96.1 | 49
CN1C(=O)c2c(O)c(=O)c(-c3nnc(Cc4c(F)cc(F)cc4F)s3)cn2N2C[C@@H]3CC[C@@H](C3)[C@@H]12 [II-149] | 0.6 | 12 | 96.5 | 14
COC[C@@H]1CC[C@H]2N(C)C(=O)c3c(O)c(=O)c(-c4nnc(Cc5c(F)cc(F)cc5F)s4)cn3N12 [II-151] | 0.37 | 17 | 94.6 | 27
CCN1C(=O)c2c(O)c(=O)c(-c3nnc(Cc4c(F)cc(F)cc4F)s3)cn2N2C[C@@H]3CC[C@@H](C3)[C@@H]12 [II-131] | 0.66 | 3.5 | 83.4 | 2.3
CCN1C(=O)c2c(O)c(=O)c(-c3nnc(Cc4c(F)cc(F)cc4F)s3)cn2N2CC[C@@H](C)C[C@@H]12 [II-143] | 1.7 | 3.6 | 82.5 | 3
CN1C(=O)c2c(O)c(=O)c(-c3nnc(Cc4cccc(Cl)c4F)s3)cn2N2CCOC[C@@H]12 [II-122] | 0.24 | 25 | 102 | 30
CC(C)N1C(=O)c2c(O)c(=O)c(C(=O)NCc3ccc(F)cc3F)cn2N2CCCC[C@@H]12 [Compound I-004] | 2.5 | – | – | –
